Experimental findings from patent US8519149B2, “Tricyclic compounds as mPGES-1 inhibitors” (Glenmark Pharmaceuticals S.A., priority 2010, dated 2013) are described below.

For the experiment, the target named is T1, Recombinant human mPGES-1 (Homo sapiens, UniProt O14684).
T1 sequence (O14684 1-152): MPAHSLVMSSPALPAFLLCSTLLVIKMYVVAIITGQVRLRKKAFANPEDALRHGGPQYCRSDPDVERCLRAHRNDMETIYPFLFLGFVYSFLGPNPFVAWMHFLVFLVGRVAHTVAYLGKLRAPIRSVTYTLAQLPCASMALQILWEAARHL
Kind of experiment: In-vitro mPGES-1 enzyme inhibition assay (PGE2 formation from PGH2, HTRF detection). Conditions: for inhibition at 1 µM: 1 μM test compound, read-out: Percentage inhibition at 1 μM; for inhibition at 1 µM / inhibition at 10 µM: recombinant human mPGES-1 microsomal fraction; for inhibition at 10 µM: 10 μM test compound, read-out: Percentage inhibition at 10 μM; for IC50: class symbols, selected examples. The format is biochemical. The text has this:
In-Vitro Protocol for Screening of mPGES-1 Inhibitors: mPGES-1 (microsomal prostaglandin E synthase-1) is a microsomal enzyme that converts endoperoxide substrate PGH2 (prostaglandin H2) to product PGE2 (prostaglandin E2) by isomerization in the presence of reduced glutathione (GSH). mPGES-1 inhibitors were screened by assessing their ability to inhibit formation of PGE2 from PGH2 in presence of mPGES-1 using anti-PGE2 antibody based detection method. […] Assay was set up using crude microsomal fractions at protein concentration of 40-60 μg/mL. […] Final concentration of DMSO in reaction was 0.5% (v/v). Negative controls comprised of all assay reagents except the enzyme. Positive controls comprised of enzyme reaction in the absence of any inhibitor. […] Reaction was stopped by addition of Stannous chloride (11 mg/ml) and PGE2 levels were measured ([…] et al. […] Inhibition of mPGES-1 enzyme activity was measured using percent of reaction occurring in the positive control. Concentration response curves were plotted using percent inhibition of maximum enzyme reaction. IC50 value was calculated from concentration response curve by nonlinear regression analysis using GraphPad PRISM software.

With `Cc1cc2c(o1)c(C(=O)NC1CCCCC1)cc1nc(Nc3c(Cl)cccc3Cl)[nH]c12` [Example-13, N-Cyclohexyl-2-[(2,6-dichlorophenyl)amino]-7-methyl-1H-furo[3,2-e]benzimidazole-5-carboxamide], the inhibition at 1 µM came out at 94.2% and the inhibition at 10 µM turned out to be 97.5%.
Consider `CC1(C)CCCC(NC(=O)c2cc3nc(Nc4c(Cl)cncc4Cl)[nH]c3c3c2OC(C)(C)C3)C1` (stereo not drawn) [Example-14, 2-[(3,5-Dichloropyridin-4-yl)amino]-N-(3,3-dimethylcyclohexyl)-7,7-dimethyl-7,8-dihydro-1H-furo[3,2-e]benzimidazole-5-carboxamide], for which the inhibition at 1 µM turned out to be 100%, the inhibition at 10 µM was determined as 100% and the IC50 was below 50 nM.
Consider `CC1(C)Cc2c(c(C(=O)Nc3ccc(Cl)cc3)cc3nc(Nc4c(Cl)cncc4Cl)[nH]c23)O1` [Example-15, N-(4-Chlorophenyl)-2-[(3,5-dichloropyridin-4-yl)amino]-7,7-dimethyl-7,8-dihydro-1H-furo[3,2-e]benzimidazole-5-carboxamide], for which the inhibition at 1 µM worked out at 97.5%, the inhibition at 10 µM is 95.5% and the IC50 was below 50 nM.
As for `Cc1cc2c(o1)c(C(=O)NC1CCCCC1)cc1nc(Nc3ccccc3Cl)[nH]c12` [Example-16, 2-[(2-Chlorophenyl)amino]-N-cyclohexyl-7-methyl-1H-furo[3,2-e]benzimidazole-5-carboxamide], the inhibition at 1 µM came out at 73.5% and the inhibition at 10 µM stood at 94.9%.
With `CC1CC2CC(C1NC(=O)c1cc3nc(Nc4c(Cl)cncc4Cl)[nH]c3c3c1OC(C)(C)C3)C2(C)C` (stereo not drawn) [Example-17, 2-[(3,5-Dichloropyridin-4-yl)amino]-7,7-dimethyl-N-(3,6,6-trimethylbicyclo[3.1.1]hept-2-yl)-7,8-dihydro-1H-furo[3,2-e]benzimidazole-5-carboxamide], the inhibition at 1 µM was found to be 98%, the inhibition at 10 µM was found to be 96.1% and the IC50 was below 50 nM.
The matching figures for `CC1(C)Cc2c(c(C(=O)Nc3ccc(Cl)cc3)cc3nc(Nc4ccccc4Cl)[nH]c23)O1` [Example-18, N-(4-Chlorophenyl)-2-[(2-chlorophenyl)amino]-7,7-dimethyl-7,8-dihydro-1H-furo[3,2-e]benzimidazole-5-carboxamide]: 98.4%, 99.8% and below 50 nM.
The like results for `CC1(C)Cc2c(c(C(=O)NC34CC5CC(CC(C5)C3)C4)cc3nc(Nc4c(Cl)cncc4Cl)[nH]c23)O1` [Example-19, N-Adamantan-1-yl-2-[(3,5-dichloropyridin-4-yl)amino]-7,7-dimethyl-7,8-dihydro-1H-furo[3,2-e]benzimidazole-5-carboxamide] were, in that order, 97.8%, 98.3% and below 50 nM.
Turning to `CC1(C)Cc2c(c(C(=O)N3CCOCC3)cc3nc(Nc4c(Cl)cncc4Cl)[nH]c23)O1` [Example-20, {2-[(3,5-Dichloropyridin-4-yl)amino]-7,7-dimethyl-7,8-dihydro-1H-furo[3,2-e]benzimidazol-5-yl}(morpholin-4-yl)methanone], the inhibition at 1 µM was found to be 10.5% and the inhibition at 10 µM came to 44.9%.
The like results for `CC1(C)Cc2c(c(C(=O)NCC3CC3)cc3nc(Nc4c(Cl)cncc4Cl)[nH]c23)O1` [Example-21, N-(Cyclopropylmethyl)-2-[(3,5-dichloropyridin-4-yl)amino]-7,7-dimethyl-7,8-dihydro-1H-furo[3,2-e]benzimidazole-5-carboxamide] were, in that order, 96.8% and 99.8%.
`Cc1cc2c(o1)c(C(=O)NCc1ccc(F)cc1)cc1nc(Nc3c(Cl)cncc3Cl)[nH]c12` [Example-22, 2-[(3,5-Dichloropyridin-4-yl)amino]-N-(4-fluorobenzyl)-7-methyl-1H-furo[3,2-e]benzimidazole-5-carboxamide]: the inhibition at 1 µM was found to be 85.8% and the inhibition at 10 µM turned out to be 98.8%.
For `Cc1cc2c(o1)c(C(=O)NC(C)C(C)(C)C)cc1nc(Nc3c(Cl)cncc3Cl)[nH]c12` (stereo not drawn) [Example-23, 2-[(3,5-Dichloropyridin-4-yl)amino]-N-(3,3-dimethylbutan-2-yl)-7-methyl-1H-furo[3,2-e]benzimidazole-5-carboxamide], the inhibition at 1 µM stood at 94%, the inhibition at 10 µM is 97.1% and the IC50 is below 50 nM.
The matching figures for `CC1(C)Cc2c(c(C(=O)Nc3ccc(F)cc3)cc3nc(Nc4c(Cl)cncc4Cl)[nH]c23)O1` [Example-24, 2-[(3,5-Dichloropyridin-4-yl)amino]-N-(4-fluorophenyl)-7,7-dimethyl-7,8-dihydro-1H-furo[3,2-e]benzimidazole-5-carboxamide]: 95.3%, 95% and below 50 nM.
The matching figures for `CC(C)(C)CC(C)(C)NC(=O)c1cc2nc(Nc3c(Cl)cncc3Cl)[nH]c2c2c1OC(C)(C)C2` [Example-25, 2-[(3,5-Dichloropyridin-4-yl)amino]-7,7-dimethyl-N-(2,4,4-trimethylpentan-2-yl)-7,8-dihydro-1H-furo[3,2-e]benzimidazole-5-carboxamide]: 92%, 98.2% and below 50 nM.
`CC1(C)Cc2c(c(C(=O)NCc3ccc(F)cc3)cc3nc(Nc4c(Cl)cncc4Cl)[nH]c23)O1` [Example-26, 2-[(3,5-Dichloropyridin-4-yl)amino]-N-(4-fluorobenzyl)-7,7-dimethyl-7,8-dihydro-1H-furo[3,2-e]benzimidazole-5-carboxamide]: the inhibition at 1 µM came to 90.2%, the inhibition at 10 µM was 97.8% and the IC50 was below 50 nM.
In the case of `CC1(C)Cc2c(c(C(=O)NCC3CCCCC3)cc3nc(Nc4c(Cl)cncc4Cl)[nH]c23)O1` [Example-27, N-(Cyclohexylmethyl)-2-[(3,5-dichloropyridin-4-yl)amino]-7,7-dimethyl-7,8-dihydro-1H-furo[3,2-e]benzimidazole-5-carboxamide], the inhibition at 1 µM stood at 93.7% and the inhibition at 10 µM came to 93%.
As to `CC1(C)Cc2c(c(C(=O)NC3CCCCC3)cc3nc(Nc4c(Cl)cncc4Cl)sc23)O1` [Example-28, N-Cyclohexyl-2-[(3,5-dichloropyridin-4-yl)amino]-7,7-dimethyl-7,8-dihydrofuro[2,3-g][1,3]benzothiazole-5-carboxamide], the inhibition at 1 µM is 87.3%, the inhibition at 10 µM is 98.9% and the IC50 is above 100 nM.
The like results for `CC1(C)Cc2c(c(C(=O)Nc3ccccc3F)cc3nc(Nc4c(Cl)cccc4Cl)[nH]c23)O1` [Example-30, 2-[(2,6-Dichlorophenyl)amino]-N-(2-fluorophenyl)-7,7-dimethyl-7,8-dihydro-1H-furo[3,2-e]benzimidazole-5-carboxamide] were, in that order, 93.8%, 92.5% and below 50 nM.
Regarding `Cc1cc2c(o1)c(C(=O)Nc1ccc(C(F)(F)F)cc1)cc1nc(Nc3c(Cl)cncc3Cl)[nH]c12` [Example-32, 2-[(3,5-Dichloropyridin-4-yl)amino]-7-methyl-N-[4-(trifluoromethyl)phenyl]-1H-furo[3,2-e]benzimidazole-5-carboxamide], the inhibition at 1 µM turned out to be 99% and the inhibition at 10 µM turned out to be 100%.
Take `Cc1cc2c(o1)c(C(=O)NC(C)(C)CC(C)(C)C)cc1nc(Nc3c(Cl)cncc3Cl)[nH]c12` [Example-34, 2-[(3,5-Dichloropyridin-4-yl)amino]-7-methyl-N-(2,4,4-trimethylpentan-2-yl)-1H-furo[3,2-e]benzimidazole-5-carboxamide]: the inhibition at 1 µM was 95.5%, the inhibition at 10 µM was 98.7% and the IC50 is below 50 nM.
In the case of `Cc1cc2c(o1)c(C(=O)NCc1ccc(F)cc1)cc1nc(Nc3c(Cl)cccc3Cl)[nH]c12` [Example-35, 2-[(2,6-Dichlorophenyl)amino]-N-(4-fluorobenzyl)-7-methyl-1H-furo[3,2-e]benzimidazole-5-carboxamide], the inhibition at 1 µM came to 89.3% and the inhibition at 10 µM was 99.1%.
As to `Cc1cc2c(o1)c(C(=O)Nc1ccc(F)cc1)cc1nc(Nc3c(Cl)cncc3Cl)[nH]c12` [Example-36, 2-[(3,5-Dichloropyridin-4-yl)amino]-N-(4-fluorophenyl)-7-methyl-1H-furo[3,2-e]benzimidazole-5-carboxamide], the inhibition at 1 µM turned out to be 92.4%, the inhibition at 10 µM was determined as 99.3% and the IC50 is above 100 nM.
Turning to `Cc1nnc(NC(=O)c2cc3nc(Nc4c(Cl)cccc4Cl)[nH]c3c3c2OC(C)(C)C3)s1` [Example-38, 2-[(2,6-Dichlorophenyl)amino]-7,7-dimethyl-N-(5-methyl-1,3,4-thiadiazol-2-yl)-7,8-dihydro-1H-furo[3,2-e]benzimidazole-5-carboxamide], the inhibition at 1 µM turned out to be 74.5% and the inhibition at 10 µM stood at 81.5%.
